# Source: publication PMC7259601 (PLoS ONE, 2020)
# Read-outs that look alike come from different tables or passages of the source.
# Assays:
# MAO-A = biological target: T1, MAO-A (Mus musculus, UniProt Q64133); experiment: L-5-HTP-induced symptoms test; type: in vivo, CD1 mice; conditions: mouse; p.o. gavage, followed by 100 mg/kg L-5-HTP i.p.; read-out: ED50 potentiation of L-5-HTP-induced symptoms
# T1 construct: from tissue; host or cells: mouse brain (homogenate ex vivo; living animal in the L-5-HTP test)
# T1 sequence (Q64133 1-526): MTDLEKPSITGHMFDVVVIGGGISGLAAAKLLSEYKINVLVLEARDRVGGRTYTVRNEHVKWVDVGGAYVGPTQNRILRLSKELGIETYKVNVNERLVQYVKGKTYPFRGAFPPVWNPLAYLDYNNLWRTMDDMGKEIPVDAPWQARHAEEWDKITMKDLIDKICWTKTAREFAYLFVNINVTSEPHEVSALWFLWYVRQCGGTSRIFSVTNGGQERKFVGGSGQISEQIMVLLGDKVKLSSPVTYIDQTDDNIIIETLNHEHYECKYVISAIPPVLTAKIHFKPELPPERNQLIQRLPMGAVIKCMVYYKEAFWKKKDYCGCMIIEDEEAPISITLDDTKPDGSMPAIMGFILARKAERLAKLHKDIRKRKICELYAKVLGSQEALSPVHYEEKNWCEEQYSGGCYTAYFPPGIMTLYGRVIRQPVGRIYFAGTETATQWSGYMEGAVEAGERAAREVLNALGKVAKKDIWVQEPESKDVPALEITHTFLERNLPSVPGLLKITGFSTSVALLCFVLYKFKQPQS
# Experimental: Male C57BL/6 mice (8 weeks of age, 25-30 g) procured from Harlan Interfauna Iberica were housed in the same condition that in MAO-B PEA section. This test was performed essentially as previously described. Test compound was administered p.o. at several dose levels to groups of mice (N = 10/dose) 60 min before an i.p. injection of L-5-HTP (100 mg/kg). This dose of 5-L-HTP produced no effects in control animals. […] Studies were performed in accordance with the institutional guidelines for the care and use of laboratory animals (European Communities Council Directive 86/609/EEC) established by the Ethical Committee for Animal Experimentation at the PRAAL-PCB.
# This test was performed essentially as previously described [90](Koe et al., 1983). Test compound was administered p.o. at several dose levels 60 min before an i.p. injection of L-5-HTP. […] One score assigned to each symptom observed per animal, giving a maximal obtainable score of 30 per group of 10 mice.
# Behavior was rated as outline above.
# [1] = system: 5-HT (non-selective) (agonist radioligand); experiment: CEREP Diversity Panel; type: binding; parameters: dose or concentration left out as unconfirmed
# Experimental: (§1) […]. MAO-A inhibition at 10 μM was 37%, in line with internal data.
# [2] = system: AMPA (agonist radioligand); experiment: CEREP Diversity Panel; type: binding; parameters: dose or concentration left out as unconfirmed
# Experimental: as §1
# [3] = system: BZD (central) (agonist radioligand); experiment: CEREP Diversity Panel; type: binding; parameters: dose or concentration left out as unconfirmed
# Experimental: as §1
# [4] = system: Ca 2+ channel (L, dihydropyridine site) (antagonist radioligand); experiment: CEREP Diversity Panel; type: binding; parameters: dose or concentration left out as unconfirmed
# Experimental: as §1
# [5] = system: Ca 2+ channel (L, diltiazem site) (benzothiazepines) (antagonist radioligand); experiment: CEREP Diversity Panel; type: binding; parameters: dose or concentration left out as unconfirmed
# Experimental: as §1
# [6] = system: Ca 2+ channel (L, verapamil site) (phenylalkylamine) (antagonist radioligand); experiment: CEREP Diversity Panel; type: binding; parameters: dose or concentration left out as unconfirmed
# Experimental: as §1
# [7] = system: Cl- channel (GABA-gated) (antagonist radioligand); experiment: CEREP Diversity Panel; type: binding; parameters: dose or concentration left out as unconfirmed
# Experimental: as §1
# [8] = system: GABA (non-selective) (agonist radioligand); experiment: CEREP Diversity Panel; type: binding; parameters: dose or concentration left out as unconfirmed
# Experimental: as §1
# [9] = system: GABA transporter (antagonist radioligand); experiment: CEREP Diversity Panel; type: binding; parameters: dose or concentration left out as unconfirmed
# Experimental: as §1
# I1 (agonist radioligand) = experiment: CEREP Diversity Panel; type: binding; parameters: dose or concentration left out as unconfirmed
# Experimental: as §1
# [10] = system: KATP channel (antagonist radioligand); experiment: CEREP Diversity Panel; type: binding; parameters: dose or concentration left out as unconfirmed
# Experimental: as §1
# [11] = system: KV channel (antagonist radioligand); experiment: CEREP Diversity Panel; type: binding; parameters: dose or concentration left out as unconfirmed
# Experimental: as §1
# [12] = system: NMDA (antagonist radioligand); experiment: CEREP Diversity Panel; type: binding; parameters: dose or concentration left out as unconfirmed
# Experimental: as §1
# [13] = system: Na+ channel (site 2) (antagonist radioligand); experiment: CEREP Diversity Panel; type: binding; parameters: dose or concentration left out as unconfirmed
# Experimental: as §1
# [14] = system: P2X (agonist radioligand); experiment: CEREP Diversity Panel; type: binding; parameters: dose or concentration left out as unconfirmed
# Experimental: as §1
# [15] = system: P2Y (agonist radioligand); experiment: CEREP Diversity Panel; type: binding; parameters: dose or concentration left out as unconfirmed
# Experimental: as §1
# [16] = system: PCP (antagonist radioligand); experiment: CEREP Diversity Panel; type: binding; parameters: dose or concentration left out as unconfirmed
# Experimental: as §1
# [17] = system: SKCa channel (antagonist radioligand); experiment: CEREP Diversity Panel; type: binding; parameters: dose or concentration left out as unconfirmed
# Experimental: as §1
# [18] = system: Y (non-selective) (agonist radioligand); experiment: CEREP Diversity Panel; type: binding; parameters: dose or concentration left out as unconfirmed
# Experimental: as §1
# [19] = system: alpha 1 (non-selective) (antagonist radioligand); experiment: CEREP Diversity Panel; type: binding; parameters: dose or concentration left out as unconfirmed
# Experimental: as §1
# [20] = system: alpha 2 (non-selective) (antagonist radioligand); experiment: CEREP Diversity Panel; type: binding; parameters: dose or concentration left out as unconfirmed
# Experimental: as §1
# [21] = system: kainate (agonist radioligand); experiment: CEREP Diversity Panel; type: binding; parameters: dose or concentration left out as unconfirmed
# Experimental: as §1
# [22] = system: opioid (non-selective) (antagonist radioligand); experiment: CEREP Diversity Panel; type: binding; parameters: dose or concentration left out as unconfirmed
# Experimental: as §1
# [23] = system: s (non-selective) (agonist radioligand); experiment: CEREP Diversity Panel; type: binding; parameters: dose or concentration left out as unconfirmed
# Experimental: as §1
# KDM1A = KDM1A (Homo sapiens, UniProt O60341); experiment: KDM1A inhibition assay (Amplex Red, dimethylH3K4 peptide); type: biochemical; parameters: purchased BPS Bioscience 50100
smiles,measurement,setting,value
"Nc1nnc(CN[C@@H]2C[C@H]2c2ccc(OCc3ccccc3)cc2)o1 [ORY-2001, vafidemstat]",ED50,MAO-A,20.5 mg/kg
same,% inhibition,[1],5%
same,% inhibition,[2],-2%
same,% inhibition,[3],-21%
same,% inhibition,[4],-1%
same,% inhibition,[5],0%
same,% inhibition,[6],5%
same,% inhibition,[7],31%
same,% inhibition,[8],6%
same,% inhibition,[9],-3%
same,% inhibition,I1 (agonist radioligand),26%
same,% inhibition,[10],3%
same,% inhibition,[11],-4%
same,% inhibition,[12],6%
same,% inhibition,[13],12%
same,% inhibition,[14],3%
same,% inhibition,[15],5%
same,% inhibition,[16],1%
same,% inhibition,[17],-11%
same,% inhibition,[18],-28%
same,% inhibition,[19],0%
same,% inhibition,[20],3%
same,% inhibition,[21],2%
same,% inhibition,[22],-2%
same,% inhibition,[23],9%
same,IC50,"KDM1A; mean IC50 KDM1A, mean ± SD, minimum 2 independent experiments",101 ± 40 nM
same,IC50,"KDM1A; rKDM1A, N = 1, n = 2, read-out: IC50 KDM1A, representative dose-response curve",105 nM
